Laboratory results reported in BindingDB's records for doi:10.7270/Q2J964TC (Burnham Center for Chemical Genomics, 2010).

Molecular target: T1, Mannose-6-phosphate isomerase (Homo sapiens, UniProt P34949)
T1 sequence (P34949 whole entry): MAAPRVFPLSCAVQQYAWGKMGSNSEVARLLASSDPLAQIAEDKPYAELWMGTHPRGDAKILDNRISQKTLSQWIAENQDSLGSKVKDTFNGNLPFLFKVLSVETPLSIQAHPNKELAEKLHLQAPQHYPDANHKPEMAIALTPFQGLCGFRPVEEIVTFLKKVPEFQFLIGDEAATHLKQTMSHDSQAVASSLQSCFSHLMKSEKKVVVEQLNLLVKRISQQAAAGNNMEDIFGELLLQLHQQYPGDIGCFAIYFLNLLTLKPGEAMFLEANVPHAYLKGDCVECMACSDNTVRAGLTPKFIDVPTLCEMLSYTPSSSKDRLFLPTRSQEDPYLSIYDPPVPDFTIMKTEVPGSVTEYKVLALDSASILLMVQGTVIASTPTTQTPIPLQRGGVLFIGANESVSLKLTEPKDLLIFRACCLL
Test: PMI enzyme inhibitors, confirmation, biochemical, fluorescence intensity (AID 1535)

- IC50: > 100 µM
SMILES: Oc1c(-c2ccccc2)sc2ccccc12 [2-phenyl-1-benzothiophen-3-one]
